Experimental data from patent US9018224B2, “Substituted cyclopropyl compounds useful as GPR119 agonists” (Merck Sharp & Dohme Corp., priority 2011, dated 2015).

Biological target: T1, human GPR119 (Homo sapiens, UniProt Q8TDV5)
T1 sequence (Q8TDV5 1-308 limits assumed): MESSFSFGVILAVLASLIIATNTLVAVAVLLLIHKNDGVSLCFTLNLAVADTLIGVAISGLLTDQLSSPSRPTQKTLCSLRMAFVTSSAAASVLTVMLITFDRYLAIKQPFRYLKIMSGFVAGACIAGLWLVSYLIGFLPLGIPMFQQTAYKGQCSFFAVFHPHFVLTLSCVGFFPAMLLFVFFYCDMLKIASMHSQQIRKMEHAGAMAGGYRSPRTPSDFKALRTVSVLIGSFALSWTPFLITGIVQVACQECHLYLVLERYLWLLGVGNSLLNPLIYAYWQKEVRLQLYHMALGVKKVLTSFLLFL
Experiment: Measurement of GPR119 signaling by cAMP (LANCE cAMP kit or HTRF) in HEK293 cells transfected with human GPR119
Assay type: cell-based
Conditions: agonist cAMP response in HEK293 cells stably transfected with human GPR119; patent does not say which of the two cAMP formats (LANCE or HTRF)
Procedure: Measurement of GPR119 Signaling Using LANCE 384-Well cAMP Kit
The adenylate cyclase assay was constructed following the LANCE™ cAMP Kit (Perkin Elmer, AD0264) instructions. […] The reaction was stopped by incubating with the supplied detection buffer containing the europium chelate of the Eu-SA/Biotin-cAMP tracer for 3 hours. The assay was performed in duplicate in a 384 well plate for duplicate plates. […] Basal activity was determined using a DMSO control and maximum response was defined as cAMP stimulation produced by an internal agonist control. Standard cAMP concentrations were assayed concurrently for conversion of fluorescence signal to cAMP level. The data was analyzed using 4-parameter curve fit in Microsoft Excel
Measurement of GPR119 Signaling Using a Cyclic AMP (cAMP) Homogenous Time Resolved Fluorescence (HTRF) Assay
Chinese hamster ovary (CHO) cell lines stably transfected with the permissive guanine nucleotide binding protein alpha 15 (Gα15) and murine GPR119 were maintained in DMEM media containing FBS, penicillin-streptomycin, puromycin, and G418 (geneticin). […] Agonist activation of the GPR119 receptor was measured in receptor transfected cells described above, treated with compounds of this invention, using a commercial homogenous time resolved fluorescence (HTRF) kit for measurement of cAMP (CisBio, Bedford, Mass.). The assay was performed in 96-well half-volume plates (murine) or 384-well plates (human) following the manufacturers instructions. Briefly, suspended cells were incubated with a dose titration of test compound at room temperature for 60 min, lysed, and incubated with HTRF reagents for an additional 60 min. The plate was read using an Envision multilabel reader (Perkin Elmer) adjusted to read time resolved fluorescence and the cAMP concentrations were extrapolated from a cAMP calibration curve. […] The concentration of test compound required to stimulate a half-maximal response (EC50), and efficacy as compared to an internal agonist control, was determined from a sigmoidal 4-parameter curve fit of the resulting plot of normalized activity versus compound concentration.

First: O=C(Cc1ccc(OCC[C@@H]2C[C@@H]2C2CCN(c3ncc(Cl)cn3)CC2)cc1F)NC1CC1 [Example 62]
Second: O=C(Cc1ccc(OCC[C@@H]2C[C@@H]2C2CCN(c3ncc(Cl)cn3)CC2)cc1F)NC1CCC1 [Example 63]
The EC50 of the first is 3-fold lower: 1.4 nM for the first, 4.2 nM for the second. The first is the more potent here.

First: CCOCc1cnc(N2CCC([C@H]3C[C@H]3CCOc3ccc(CC(=O)N4CC(F)(F)C4)c(F)c3)CC2)nc1 [Example 202]
Second: COCc1cnc(N2CCC([C@H]3C[C@H]3CCOc3ccc(CC(=O)N4CC(C)(O)C4)c(F)c3)CC2)nc1 [Example 44]
The EC50 of the first is 12-fold lower: 0.3 nM for the first, 3.6 nM for the second. The first is the more potent here.

Compared with `CCN(C(=O)Cc1ccc(OCC[C@@H]2C[C@@H]2C2CCN(c3ncc(Cl)cn3)CC2)cc1F)C(C)C` [Example 102], `CCN(CC)C(=O)Cc1ccc(OCC[C@@H]2C[C@@H]2C2CCN(c3ncc(Cl)cn3)CC2)cc1F` [Example 98] is 3.1-fold higher in EC50: 3 nM for the first, 9.2 nM for the second. The first is the more potent here.

Going from `Cn1ccc2c1CCN(C(=O)Cc1ccc(OCC[C@@H]3C[C@@H]3C3CCN(c4ncc(Cl)cn4)CC3)cc1F)C2` [Example 145] to `O=C(Cc1ccc(OCC[C@@H]2C[C@@H]2C2CCN(c3ncc(Cl)cn3)CC2)cc1F)N1CCc2cccnc2C1` [Example 130], the EC50 falls from 6.3 nM to 1.1 nM (5.7-fold).

Going from `O=C(Cc1ccc(OCC[C@@H]2C[C@@H]2C2CCN(c3ncc(Cl)cn3)CC2)cc1F)NCC1(O)CC1` [Example 101] to `O=C(Cc1ccc(OCC[C@@H]2C[C@@H]2C2CCN(c3ncc(Cl)cn3)CC2)cc1F)NC1CCCC1F` (some centres unmarked) [Example 111], the EC50 falls from 5.2 nM to 3 nM (1.7-fold). The second is the more potent here.

`COCc1cnc(N2CCC([C@H]3C[C@H]3CCOc3ccc(CC(=O)N4CCCCC4)c(F)c3)CC2)nc1` [Example 48] and `COCc1cnc(N2CCC([C@H]3C[C@H]3CCOc3ccc(CC(=O)N4CCC4)c(Cl)c3)CC2)nc1` [Example 22] are within 1.5-fold of each other in EC50: 0.99 nM for the first, 0.83 nM for the second.

Compared with `COCc1cnc(N2CCC([C@H]3C[C@H]3CCOc3ccc(CC(=O)N(C)C)c(Cl)c3)CC2)nc1` [Example 28, 2-(2-chloro-4-{2-[(1S,2R)-2-{1-[5-(methoxymethyl)pyrimidin-2-yl]piperidin-4-yl}cyclopropyl]ethoxy}phenyl)-N,N-dimethylacetamide], `CCc1cnc(N2CCC([C@H]3C[C@H]3CCOc3ccc(CC(=O)N4CCC4)c(Cl)c3)CC2)nc1` [Example 21] is 12-fold lower in EC50: 2.3 nM for the first, 0.19 nM for the second.

Compared with `O=C(Cc1ccc(OCC[C@@H]2C[C@@H]2C2CCN(c3ncc(Cl)cn3)CC2)cc1Cl)N1CCC1` [Example 20, 1-(azetidin-1-yl)-2-[2-chloro-4-(2-{(1S,2R)-2-[1-(5-chloropyrimidin-2-yl)piperidin-4-yl]cyclopropyl}ethoxy)phenyl]ethanone], `COc1cc(OCC[C@@H]2C[C@@H]2C2CCN(c3ncc(Cl)cn3)CC2)ccc1CC(=O)N1CCC1` [Example 26, 1-(azetidin-1-yl)-2-[4-(2-{(1S,2R)-2-[1-(5-chloropyrimidin-2-yl)piperidin-4-yl]cyclopropyl}ethoxy)-2-methoxyphenyl]ethanone] is 22-fold higher in EC50: 0.32 nM for the first, 7.1 nM for the second.

Compared with `Cc1n[nH]c2c1CN(C(=O)Cc1ccc(OCC[C@@H]3C[C@@H]3C3CCN(c4ncc(Cl)cn4)CC3)cc1F)CC2` [Example 140], `O=C(Cc1ccc(OCC[C@@H]2C[C@@H]2C2CCN(c3ncc(Cl)cn3)CC2)cc1F)N1CCc2[nH]nnc2C1` [Example 152] is 1.7-fold lower in EC50: 3.2 nM for the first, 1.9 nM for the second.

Compared with `NC(=O)C1CCN1C(=O)Cc1ccc(OCC[C@@H]2C[C@@H]2C2CCN(c3ncc(Cl)cn3)CC2)cc1F` (some centres unmarked) [Example 106], `C[C@H]1CCCN1C(=O)Cc1ccc(OCC[C@@H]2C[C@@H]2C2CCN(c3ncc(Cl)cn3)CC2)cc1F` [Example 117] is 2.5-fold lower in EC50: 4.3 nM for the first, 1.7 nM for the second.

Compared with `COCc1cnc(N2CCC([C@H]3C[C@H]3CCOc3cc(F)c(CC(=O)N4CCCC4)c(F)c3)CC2)nc1` [Example 228], `COCc1cnc(N2CCC([C@H]3C[C@H]3CCOc3cc(F)c(CC(=O)N4CCOCC4)c(F)c3)CC2)nc1` [Example 223] is 1.9-fold higher in EC50: 0.2 nM for the first, 0.38 nM for the second.

First: COCc1cnc(N2CCC([C@H]3C[C@H]3CCOc3cc(F)c(Cc4nnco4)c(F)c3)CC2)nc1 [Example 247]
Second: COCc1cnc(N2CCC([C@H]3C[C@H]3CCOc3cc(F)c(CC(=O)N4CC(OC)C4)c(F)c3)CC2)nc1 [Example 225]
The EC50 of the first is 19-fold higher: 6.7 nM for the first, 0.35 nM for the second. The second is the more potent here.

First: O=C(Cc1ccc(OCC[C@@H]2C[C@@H]2C2CCN(c3ncc(Cl)cn3)CC2)cc1F)N1CCc2nc(C3CC3)sc2C1 [Example 184]
Second: O=C(Cc1ccc(OCC[C@@H]2C[C@@H]2C2CCN(c3ncc(Cl)cn3)CC2)cc1F)N1CCc2c(C3CC3)n[nH]c2C1 [Example 142]
The EC50 of the first is 1.8-fold lower: 1.7 nM for the first, 3.1 nM for the second. The first is the more potent here.

First: O=C(Cc1ccc(OCC[C@@H]2C[C@@H]2C2CCN(c3ncc(Cl)cn3)CC2)nc1)N1CCC1 [Example 242]
Second: CCc1cnc(N2CCC([C@H]3C[C@H]3CCOc3ccc(CC(=O)N4CCC4)c(OC)c3)CC2)nc1 [Example 27]
The EC50 of the first is 2.9-fold higher: 9.4 nM for the first, 3.2 nM for the second. The second is the more potent here.

Compared with `CN(CCO)C(=O)Cc1ccc(OCC[C@@H]2C[C@@H]2C2CCN(c3ncc(Cl)cn3)CC2)cc1F` [Example 170], `CN(CCS(C)(=O)=O)C(=O)Cc1ccc(OCC[C@@H]2C[C@@H]2C2CCN(c3ncc(Cl)cn3)CC2)cc1F` [Example 169] is 1.9-fold higher in EC50: 1.7 nM for the first, 3.2 nM for the second.

First: CC1CC(C)CN(C(=O)Cc2ccc(OCC[C@@H]3C[C@@H]3C3CCN(c4ncc(Cl)cn4)CC3)cc2F)C1 (some centres unmarked) [Example 89]
Second: C[C@H]1CCCN1C(=O)Cc1ccc(OCC[C@@H]2C[C@@H]2C2CCN(c3ncc(Cl)cn3)CC2)cc1F [Example 73]
The EC50 of the first is 3.2-fold higher: 8.6 nM for the first, 2.7 nM for the second. The second is the more potent here.

Going from `COCc1cnc(N2CCC([C@H]3C[C@H]3CCOc3ccc(CC(=O)N4CC(OC)C4)c(F)c3)CC2)nc1` [Example 45] to `COc1cnc(N2CCC([C@H]3C[C@H]3CCOc3ccc(CC(=O)N4CC(C)(O)C4)c(F)c3)CC2)nc1` [Example 35], the EC50 rises from 0.81 nM to 2.2 nM (2.7-fold). The first is the more potent here.

First: CC(C)(O)c1cnc(N2CCC([C@H]3C[C@H]3CCOc3cc(F)c(CC(=O)N4CCC4)c(F)c3)CC2)nc1 [Example 206]
Second: CC(C)(O)c1cnc(N2CCC([C@H]3C[C@H]3CCOc3ccc(CC(=O)N4CCC4)c(F)c3)CC2)nc1 [Example 205, 1-(azetidin-1-yl)-2-(2-fluoro-4-{2-[(1S,2R)-2-{1-[5-(2-hydroxypropan-2-yl]pyrimidin-2-yl]piperidin-4-yl}cyclopropyl]ethoxy}phenyl)ethanone]
The EC50 of the first is 11-fold lower: 0.71 nM for the first, 7.5 nM for the second.

Compared with `COCc1cnc(N2CCC([C@H]3C[C@H]3CCOc3ccc(CC(=O)N4CC(F)(F)C4)cc3)CC2)nc1` [Example 12], `O=C(Cc1ccc(OCC[C@@H]2C[C@@H]2C2CCN(c3ncc(Cl)cn3)CC2)cc1)NC1CC1` [Example 2] is 1.7-fold lower in EC50: 3 nM for the first, 1.8 nM for the second.

`O=C(Cc1ccc(OCC[C@@H]2C[C@@H]2C2CCN(c3ncc(Cl)cn3)CC2)cc1F)N1CC(n2ccnc2)C1` [Example 118] and `O=C(Cc1ccc(OCC[C@@H]2C[C@@H]2C2CCN(c3ncc(Cl)cn3)CC2)cc1F)N1CCc2nccnc2C1` [Example 125] are within 1.5-fold of each other in EC50: 1.1 nM for the first, 0.96 nM for the second.

Compared with `Cc1nc2c(o1)CCN(C(=O)Cc1ccc(OCC[C@@H]3C[C@@H]3C3CCN(c4ncc(Cl)cn4)CC3)cc1F)C2` [Example 136], `COc1nnc2n1CCN(C(=O)Cc1ccc(OCC[C@@H]3C[C@@H]3C3CCN(c4ncc(Cl)cn4)CC3)cc1F)C2` [Example 137] is 5.3-fold higher in EC50: 0.73 nM for the first, 3.9 nM for the second. The first is the more potent here.

Compared with `COc1cnc(N2CCC([C@H]3C[C@H]3CCOc3cc(F)c(CC(=O)N4CCOCC4)c(F)c3)CC2)nc1` [Example 215], `COc1cnc(N2CCC([C@H]3C[C@H]3CCOc3cc(F)c(CC(=O)N4CC(F)C4)c(F)c3)CC2)nc1` [Example 216] is 3.2-fold lower in EC50: 0.29 nM for the first, 0.09 nM for the second.

Compared with `O=C(Cc1ccc(OCC[C@@H]2C[C@@H]2C2CCN(c3ncc(Cl)cn3)CC2)cc1F)N1CCn2c(Cc3ccccc3)cnc2C1` [Example 181], `O=C(Cc1ccc(OCC[C@@H]2C[C@@H]2C2CCN(c3ncc(Cl)cn3)CC2)cc1F)N1CC(O)(C(F)(F)F)C1` [Example 67] is 9-fold lower in EC50: 6.1 nM for the first, 0.68 nM for the second. The second is the more potent here.

Compound `O=C(Cc1ccc(OCC[C@@H]2C[C@@H]2C2CCN(c3ncc(Cl)cn3)CC2)cc1F)NC(C1CC1)C1CC1` [Example 110] has an EC50 of 5.8 nM.
